Source: US8895753B2, “S1P receptor modulating agent” (Meiji Seika Pharma Co., Ltd., priority 2011, dated 2014)
“And” between values parts separate entries of the source, which are not always exact repeats. Equal entries are not always repeated.

Assays:
[1] = biological target: T1, Human S1P1 receptor (Homo sapiens, UniProt P21453); test: Agonist activity at an S1P1 receptor (reporter assay, EDG1-bla/U2OS cells); assay type: cell-based; parameters: host or cells: U2OS (EDG1-bla/U2OS); conditions: S1P maximum response = 100%
Protocol: Human S1P1 receptor gene recombinant EDG1-bla/U2OS cells (Life Technologies Japan Ltd.) were plated in a 96-well half-sized clear bottom black plate at a density of 10000 cells/32 μL/well, and then the plate was incubated at 37° C. in a 5% CO2 incubator for 48 hours. A culture medium containing each test compound prepared as a 5× concentrate was added at 8 μL/well, and the plate was incubated at 37° C. in a 5% CO2 incubator for 5 hours. The substrate (LiveBLAzer™-FRET B/G substrate (CCF4-AM), Life Technologies Japan Ltd.) prepared as a 6× concentrate was added at 8 μL into each well, and the plate was incubated at room temperature for 2 hours in the dark. The fluorescence intensity of each well was detected using a bottom-reading fluorescence microplate reader (EnVision: ParkinElmer) at one excitation wavelength and 2 wavelengths for fluorescence emission (Ex409 nm, Em460 nm, Em530 nm). The intensity ratio of fluorescence at 460 nm/530 nm was calculated for each well. The maximum response ratio confirmed from the dose response of SIP was expressed as 100%. The concentration of a test compound required to stimulate 50% of its maximal activation was computed as EC50 (nM).

[2] = biological target: T2, Human S1P4 receptor (Homo sapiens, UniProt O95977); test: Agonist activity at an S1P4 receptor (calcium influx); assay type: cell-based; conditions: at 1000 nM; read-out: activity at S1P4 receptor (elevation of intracellular calcium)
T2 sequence (O95977 1-384): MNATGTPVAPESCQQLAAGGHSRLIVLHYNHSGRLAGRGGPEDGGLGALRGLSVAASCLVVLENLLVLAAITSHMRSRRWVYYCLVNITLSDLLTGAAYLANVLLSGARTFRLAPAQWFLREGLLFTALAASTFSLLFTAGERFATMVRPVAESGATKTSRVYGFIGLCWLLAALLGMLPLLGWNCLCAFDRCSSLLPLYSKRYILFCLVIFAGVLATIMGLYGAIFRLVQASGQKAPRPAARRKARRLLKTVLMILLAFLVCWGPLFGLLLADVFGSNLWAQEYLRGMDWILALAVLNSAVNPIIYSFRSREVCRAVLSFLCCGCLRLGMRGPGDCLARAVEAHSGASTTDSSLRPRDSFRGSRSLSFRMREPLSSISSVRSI
Protocol: By using Human S1P4 receptor expressing cells (Multispan Inc. CG1052-1), the elevation of intracellular calcium concentration via agonist activity by the addition of 1000 nM was measured by Fret method (fluorescence resonance energy transfer).

[3] = biological target: T1, Human S1P1 receptor; test: Agonist activity at an S1P1 receptor ([35S]-GTPγS exchange reaction, membrane fractions); assay type: biochemical; conditions: read-out: EC50, agonist activity at S1P1 receptor (GTP exchange reaction)
Protocol: (§1) By using membrane fractions prepared from a human S1P1 receptor expressing cells (Multispan Ltd.), the agonist activity of each test compound was measured by [^35S]-GTPγS exchange reaction in accordance with a standard procedure (Methods in Molecular Biology, Vol. 552, p 143-151 (2009)), and EC50 (nM) of each test compound was computed.

[4] = biological target: Human S1P3 receptor (Homo sapiens, UniProt Q99500); test: Agonist activity at an S1P3 receptor ([35S]-GTPγS exchange reaction at 1000 nM); assay type: biochemical; conditions: read-out: percent of the maximal agonist activity at S1P3 receptor
Protocol: as §1
By using membrane fractions prepared from Human S1P3 receptor expressing cells (Multispan Inc.), the agonist activity of the compound in the present invention was measured by a [^35S]-GTPγS exchange reaction at 1000 nM by the similar method of the Experimental Example 2.

Sequence of Human S1P3 receptor (Q99500 whole entry): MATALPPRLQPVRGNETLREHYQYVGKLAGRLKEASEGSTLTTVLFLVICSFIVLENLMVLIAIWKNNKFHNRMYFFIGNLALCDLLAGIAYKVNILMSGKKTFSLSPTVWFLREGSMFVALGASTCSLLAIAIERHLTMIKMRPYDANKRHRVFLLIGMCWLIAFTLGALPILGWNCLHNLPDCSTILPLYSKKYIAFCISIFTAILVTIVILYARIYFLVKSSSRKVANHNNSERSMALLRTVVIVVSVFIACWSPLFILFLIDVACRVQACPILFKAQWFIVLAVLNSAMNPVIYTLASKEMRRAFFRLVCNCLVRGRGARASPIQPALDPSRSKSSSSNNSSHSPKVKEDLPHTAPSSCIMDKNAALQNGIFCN
T1 sequence (P21453 whole entry): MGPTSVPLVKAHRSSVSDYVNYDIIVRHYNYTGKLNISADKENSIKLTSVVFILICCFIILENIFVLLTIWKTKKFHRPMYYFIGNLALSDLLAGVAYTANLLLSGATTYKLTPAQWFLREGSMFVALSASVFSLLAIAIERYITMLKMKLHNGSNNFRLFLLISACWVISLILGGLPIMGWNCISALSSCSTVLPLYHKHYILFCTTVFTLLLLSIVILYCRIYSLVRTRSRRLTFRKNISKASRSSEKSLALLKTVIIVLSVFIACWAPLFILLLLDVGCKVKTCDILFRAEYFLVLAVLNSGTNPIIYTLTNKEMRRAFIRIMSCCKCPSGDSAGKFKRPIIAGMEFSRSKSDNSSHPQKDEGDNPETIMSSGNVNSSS

EC50 [1] | activation at 1 µM [2] | EC50 [3] | Emax at 1 µM [4] | SMILES
≤ 100 nM and 87.1 nM |  |  |  | CC(C)Oc1ccc(-c2cnc(-c3ccc(CN4CC(c5nn[nH]n5)C4)cc3)s2)cc1 [Example 4, 2-(4-((3-(2H-tetrazol-5-yl)azetidin-1-yl)methyl)phenyl)-5-(4-isopropoxyphenyl)thiazole]
≤ 500 nM |  |  |  | CC(C)Oc1ccc(-c2cnc(-c3ccc(CN4CCC(C(=O)O)CC4)cc3)s2)cc1 [Example 5, 1-(4-(5-(4-isopropoxyphenyl)thiazol-2-yl)benzyl)piperidine-4-carboxylic acid]
≤ 100 nM and 72.6 nM |  |  |  | CC(C)Oc1cccc(-c2cnc(-c3ccc(CN4CC(C(=O)O)C4)cc3)s2)c1 [Example 7, 1-(4-(5-(3-isopropoxyphenyl)thiazol-2-yl)benzyl)azetidine-3-carboxylic acid]
≤ 10 nM and 6.58 nM | < 20% | ≤ 100 nM |  | CC(C)Oc1ccc(-c2cnc(-c3ccc(C(C)N4CC(C(=O)O)C4)cc3)s2)cc1 (stereo not shown) [Example 8, 1-(1-(4-(5-(4-isopropoxyphenyl)thiazol-2-yl)phenyl)ethyl)azetidine-3-carboxylic acid]
≤ 1 nM and 0.076 nM | < 20% | ≤ 10 nM | 20 to 50% | CC(C)Oc1ccc(-c2cnc(-c3ccc(CN4CC(C(=O)O)C4)cc3F)s2)cc1Cl [Example 11, 1-(4-(5-(3-chloro-4-isopropoxyphenyl)thiazol-2-yl)-3-fluorobenzyl)azetidine-3-carboxylic acid]
≤ 10 nM | < 20% | ≤ 50 nM | 20 to 50% | CC(C)Oc1ccc(-c2cnc(-c3ccc(CN4CC(C(=O)O)C4)cc3Cl)s2)cc1 [Example 12, 1-(3-chloro-4-(5-(4-isopropoxyphenyl)thiazol-2-yl)benzyl)azetidine-3-carboxylic acid]
≤ 100 nM |  |  |  | CCCCc1cc(CN2CC(C(=O)O)C2)ccc1-c1ncc(-c2ccc(OC(C)C)cc2)s1 [Example 13, 1-(3-butyl-4-(5-(4-isopropoxyphenyl)thiazol-2-yl)benzyl)azetidine-3-carboxylic acid]
≤ 10 nM |  |  |  | CC(C)Oc1ccc(-c2cnc(-c3ccc(CN4CC(C(=O)O)C4)cc3C3CC3)s2)cc1 [Example 14, 1-(3-cyclopropyl-4-(5-(4-isopropoxyphenyl)thiazol-2-yl)benzyl)azetidine-3-carboxylic acid]
≤ 10 nM | < 20% |  | < 20% | CCc1cc(CN2CC(C(=O)O)C2)ccc1-c1ncc(-c2ccc(OC(C)C)cc2)s1 [Example 15, 1-(3-ethyl-4-(5-(4-isopropoxyphenyl)thiazol-2-yl)benzyl)azetidine-3-carboxylic acid]
≤ 100 nM |  |  |  | O=C(O)C1CN(Cc2ccc(-c3ncc(-c4ccc(OC5CC5)cc4)s3)cc2)C1 [Example 16, 1-(4-(5-(4-cyclopropoxyphenyl)thiazol-2-yl)benzyl)azetidine-3-carboxylic acid]
≤ 10 nM | < 20% | ≤ 50 nM |  | CC(C)Oc1ccc(-c2cnc(-c3ccc(CN4CC(C(=O)O)C4)cc3F)s2)cc1 [Example 17, 1-(3-fluoro-4-(5-(4-isopropoxyphenyl)thiazol-2-yl)benzyl)azetidine-3-carboxylic acid]
≤ 500 nM |  |  |  | COc1cc(CN2CC(C(=O)O)C2)ccc1-c1ncc(-c2ccc(OC(C)C)cc2)s1 [Example 18, 1-(4-(5-(4-isopropoxyphenyl)thiazol-2-yl)-3-methoxybenzyl)azetidine-3-carboxylic acid]
≤ 100 nM |  |  |  | CCc1cc(-c2ncc(-c3ccc(OC(C)C)cc3)s2)ccc1CN1CC(C(=O)O)C1 [Example 20, 1-(2-ethyl-4-(5-(4-isopropoxyphenyl)thiazol-2-yl)benzyl)azetidine-3-carboxylic acid]
≤ 10 nM | < 20% | ≤ 50 nM | 20 to 50% | Cc1cc(CN2CC(C(=O)O)C2)ccc1-c1ncc(-c2ccc(OC(C)C)cc2)s1 [Example 21, 1-(4-(5-(4-isopropoxyphenyl)thiazol-2-yl)-3-methylbenzyl)azetidine-3-carboxylic acid]
≤ 10 nM | < 20% | ≤ 10 nM | < 20% | CC(C)Oc1ccc(-c2cnc(-c3ccc(CN4CC(C(=O)O)C4)c(F)c3)s2)cc1 [Example 22, 1-(2-fluoro-4-(5-(4-isopropoxyphenyl)thiazol-2-yl)benzyl)azetidine-3-carboxylic acid]
≤ 10 nM | < 20% | ≤ 50 nM | < 20% | CC(C)Oc1ccc(-c2cnc(-c3ccc(CN4CC(C(=O)O)C4)c(Cl)c3)s2)cc1 [Example 23, 1-(2-chloro-4-(5-(4-isopropoxyphenyl)thiazol-2-yl)benzyl)azetidine-3-carboxylic acid]
≤ 100 nM |  |  |  | CC(C)Oc1ccc(-c2cnc(-c3ccc(CN4CC(C(=O)O)C4)c(C4CC4)c3)s2)cc1 [Example 24, 1-(2-cyclopropyl-4-(5-(4-isopropoxyphenyl)thiazol-2-yl)benzyl)azetidine-3-carboxylic acid]
≤ 10 nM |  |  |  | Cc1cc(-c2ncc(-c3ccc(OC(C)C)cc3)s2)ccc1CN1CC(C(=O)O)C1 [Example 25, 1-(4-(5-(4-isopropoxyphenyl)thiazol-2-yl)-2-methylbenzyl)azetidine-3-carboxylic acid]
≤ 100 nM |  |  |  | COc1cc(-c2ncc(-c3ccc(OC(C)C)cc3)s2)ccc1CN1CC(C(=O)O)C1 [Example 26, 1-(4-(5-(4-isopropoxyphenyl)thiazol-2-yl)-2-methoxybenzyl)azetidine-3-carboxylic acid]
≤ 100 nM |  |  |  | CC(C)Oc1ccc(-c2cnc(-c3ccc(CN4CC(C(=O)O)C4)c(C(F)(F)F)c3)s2)cc1 [Example 27, 1-(4-(5-(4-isopropoxyphenyl)thiazol-2-yl)-2-(trifluoromethyl)benzyl)azetidine-3-carboxylic acid]
≤ 100 nM |  |  |  | CC(C)(C)c1ccc(-c2cnc(-c3ccc(CN4CC(C(=O)O)C4)cc3)s2)cc1 [Example 33, 1-(4-(5-(4-tert-butylphenyl)thiazol-2-yl)benzyl)azetidine-3-carboxylic acid]
≤ 500 nM |  |  |  | CCCCCCc1ccc(-c2cnc(-c3ccc(CN4CC(C(=O)O)C4)cc3)s2)cc1 [Example 35, 1-(4-(5-(4-hexylphenyl)thiazol-2-yl)benzyl)azetidine-3-carboxylic acid]
≤ 500 nM |  |  |  | CCCCCOc1ccc(-c2cnc(-c3ccc(CN4CC(C(=O)O)C4)cc3)s2)cc1 [Example 40, 1-(4-(5-(4-pentyloxyphenyl)thiazol-2-yl)benzyl)azetidine-3-carboxylic acid]
≤ 100 nM |  |  |  | O=C(O)C1CN(Cc2ccc(-c3ncc(-c4ccc(OC5CCCC5)cc4)s3)cc2)C1 [Example 41, 1-(4-(5-(4-(cyclopentyloxy)phenyl)thiazol-2-yl)benzyl)azetidine-3-carboxylic acid]
≤ 100 nM |  |  |  | O=C(O)C1CN(Cc2ccc(-c3ncc(-c4ccc(OC5CCCCC5)cc4)s3)cc2)C1 [Example 43, 1-(4-(5-(4-(cyclohexyloxy)phenyl)thiazol-2-yl)benzyl)azetidine-3-carboxylic acid]
≤ 100 nM |  |  |  | CCCCCc1ccc(-c2cnc(-c3ccc(CN4CC(C(=O)O)C4)cc3)s2)cc1 [Example 49, 1-(4-(5-(4-pentylphenyl)thiazol-2-yl)benzyl)azetidine-3-carboxylic acid]
≤ 100 nM |  |  |  | Cc1cc(OC(C)C)ccc1-c1cnc(-c2ccc(CN3CC(C(=O)O)C3)cc2)s1 [Example 54, 1-(4-(5-(4-isopropoxy-2-methylphenyl)thiazol-2-yl)benzyl)azetidine-3-carboxylic acid]

SMILES | EC50 [1] | activation at 1 µM [2] | EC50 [3] | Emax at 1 µM [4]
CCCCOc1ccc(-c2cnc(-c3ccc(CN4CC(C(=O)O)C4)cc3)s2)cc1 [Example 39, 1-(4-(5-(4-butoxyphenyl)thiazol-2-yl)benzyl)azetidine-3-carboxylic acid] | ≤ 100 nM |  |  | 
